# The supplement of paper PMC11424490
# How the values were obtained:
# Assay in all cases: combination cScore with sotorasib (Bliss gap around IC50) (%PoC); higher = stronger additive effect
# [1] = test system: NCI-H2122
# In short: (§1)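 NCI-H2122, NCI-H358 and SW837 cells were plated in 384-well plates at 500 or 800 cells per well, treated with concentration matrices after 24 h, and grown for 72 h (SW837 for 144 h). Luminescence from CellTiter-Glo was expressed as percent of control relative to vehicle wells and fitted with four-parameter curves. The score is the mean Bliss-independence gap, expected minus measured viability, across a field around both monotherapy IC50 values, or across the top concentrations where no IC50 was reached.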
# [2] = test system: NCI-H358
# In short: as §1
# [3] = test system: SW837
# In short: as §1
compound,measurement,setting,value
CC(C)N(CCCNC(=O)Nc1ccc(C(C)(C)C)cc1)C[C@H]1O[C@@H](n2ccc3c(N)ncnc32)[C@H](O)[C@@H]1O + C=CC(=O)N1CCN(c2nc(=O)n(-c3c(C)ccnc3C(C)C)c3nc(-c4c(O)cccc4F)c(F)cc23)[C@@H](C)C1 [sotorasib],combination cScore with sotorasib,[1],8.67
same,combination cScore with sotorasib,[2],2.07
same,combination cScore with sotorasib,[3],1.84
Cc1c(Cn2c(C)nc3c(C(=O)O)cc(N4CCOCC4)cc32)cccc1C(F)(F)F + C=CC(=O)N1CCN(c2nc(=O)n(-c3c(C)ccnc3C(C)C)c3nc(-c4c(O)cccc4F)c(F)cc23)[C@@H](C)C1 [sotorasib],combination cScore with sotorasib,[1],5.26
same,combination cScore with sotorasib,[2],-2.39
same,combination cScore with sotorasib,[3],9.96
O=C(C1CC1)N1CC[C@@H](Cn2c(-c3ccc(-c4ccc5occc5c4)cc3)nc3cnccc32)C1 + C=CC(=O)N1CCN(c2nc(=O)n(-c3c(C)ccnc3C(C)C)c3nc(-c4c(O)cccc4F)c(F)cc23)[C@@H](C)C1 [sotorasib],combination cScore with sotorasib,[1],14.4
same,combination cScore with sotorasib,[2],1
same,combination cScore with sotorasib,[3],13.8
O=c1cc(-c2cccc3c2Sc2ccccc2S3)oc(N2CCOCC2)c1 + C=CC(=O)N1CCN(c2nc(=O)n(-c3c(C)ccnc3C(C)C)c3nc(-c4c(O)cccc4F)c(F)cc23)[C@@H](C)C1 [sotorasib],combination cScore with sotorasib,[1],11.2
same,combination cScore with sotorasib,[2],12.9
same,combination cScore with sotorasib,[3],10.6
CC1(C)CCC(c2ccc(Cl)cc2)=C(CN2CCN(c3ccc(C(=O)NS(=O)(=O)c4ccc(N[C@H](CCN5CCOCC5)CSc5ccccc5)c(S(=O)(=O)C(F)(F)F)c4)cc3)CC2)C1 [ABT-263] + C=CC(=O)N1CCN(c2nc(=O)n(-c3c(C)ccnc3C(C)C)c3nc(-c4c(O)cccc4F)c(F)cc23)[C@@H](C)C1 [sotorasib],combination cScore with sotorasib,[1],15.1
same,combination cScore with sotorasib,[2],2.08
same,combination cScore with sotorasib,[3],20.7
COc1cc(CCc2cc(NC(=O)c3ccc(N4CC(C)NC(C)C4)cc3)n[nH]2)cc(OC)c1 (stereo not given) [AZD4547] + C=CC(=O)N1CCN(c2nc(=O)n(-c3c(C)ccnc3C(C)C)c3nc(-c4c(O)cccc4F)c(F)cc23)[C@@H](C)C1 [sotorasib],combination cScore with sotorasib,[1],11.8
same,combination cScore with sotorasib,[2],5.01
same,combination cScore with sotorasib,[3],8.33
CCN(CCCOc1ccc2c(Nc3cc(CC(=O)Nc4cccc(F)c4)[nH]n3)ncnc2c1)CCOP(=O)(O)O [AZD-1152] + C=CC(=O)N1CCN(c2nc(=O)n(-c3c(C)ccnc3C(C)C)c3nc(-c4c(O)cccc4F)c(F)cc23)[C@@H](C)C1 [sotorasib],combination cScore with sotorasib,[1],11.3
same,combination cScore with sotorasib,[2],1.15
same,combination cScore with sotorasib,[3],9.37
CCN1CCN(Cc2ccc(Nc3ncc(F)c(-c4cc(F)c5nc(C)n(C(C)C)c5c4)n3)nc2)CC1 [Abemaciclib] + C=CC(=O)N1CCN(c2nc(=O)n(-c3c(C)ccnc3C(C)C)c3nc(-c4c(O)cccc4F)c(F)cc23)[C@@H](C)C1 [sotorasib],combination cScore with sotorasib,[1],9.29
same,combination cScore with sotorasib,[2],6.78
same,combination cScore with sotorasib,[3],19.6
CN(C)C/C=C/C(=O)Nc1cc2c(Nc3ccc(F)c(Cl)c3)ncnc2cc1O[C@H]1CCOC1 [Afatinib] + C=CC(=O)N1CCN(c2nc(=O)n(-c3c(C)ccnc3C(C)C)c3nc(-c4c(O)cccc4F)c(F)cc23)[C@@H](C)C1 [sotorasib],combination cScore with sotorasib,[1],22.8
same,combination cScore with sotorasib,[2],11.4
same,combination cScore with sotorasib,[3],20.1
COc1cc2nc(C)nc(N[C@H](C)c3cc(N)cc(C(F)(F)F)c3)c2cc1O[C@H]1CCOC1 [BI-3406 (SOSi)] + C=CC(=O)N1CCN(c2nc(=O)n(-c3c(C)ccnc3C(C)C)c3nc(-c4c(O)cccc4F)c(F)cc23)[C@@H](C)C1 [sotorasib],combination cScore with sotorasib,[1],28.9
same,combination cScore with sotorasib,[2],13
same,combination cScore with sotorasib,[3],9.14
Nc1cc(C(F)(F)F)c(-c2cc(N3CCOCC3)nc(N3CCOCC3)n2)cn1 [BKM120] + C=CC(=O)N1CCN(c2nc(=O)n(-c3c(C)ccnc3C(C)C)c3nc(-c4c(O)cccc4F)c(F)cc23)[C@@H](C)C1 [sotorasib],combination cScore with sotorasib,[1],16.9
same,combination cScore with sotorasib,[2],4.4
same,combination cScore with sotorasib,[3],15.9
Cc1nc(NC(=O)N2CCC[C@H]2C(N)=O)sc1-c1ccnc(C(C)(C)C(F)(F)F)c1 [BYL-719] + C=CC(=O)N1CCN(c2nc(=O)n(-c3c(C)ccnc3C(C)C)c3nc(-c4c(O)cccc4F)c(F)cc23)[C@@H](C)C1 [sotorasib],combination cScore with sotorasib,[1],24.8
same,combination cScore with sotorasib,[2],5.72
same,combination cScore with sotorasib,[3],24.4
COC(=O)[C@]12CCC(C)(C)C[C@H]1[C@H]1C(=O)C=C3[C@@]4(C)C=C(C#N)C(=O)C(C)(C)[C@@H]4CC[C@@]3(C)[C@]1(C)CC2 [Bardoxolone methyl] + C=CC(=O)N1CCN(c2nc(=O)n(-c3c(C)ccnc3C(C)C)c3nc(-c4c(O)cccc4F)c(F)cc23)[C@@H](C)C1 [sotorasib],combination cScore with sotorasib,[1],13
same,combination cScore with sotorasib,[2],-1.43
same,combination cScore with sotorasib,[3],3
O=C(/C=C/c1cccc(S(=O)(=O)Nc2ccccc2)c1)NO [Belinostat] + C=CC(=O)N1CCN(c2nc(=O)n(-c3c(C)ccnc3C(C)C)c3nc(-c4c(O)cccc4F)c(F)cc23)[C@@H](C)C1 [sotorasib],combination cScore with sotorasib,[1],10.8
same,combination cScore with sotorasib,[2],-2.69
same,combination cScore with sotorasib,[3],9.09
Cc1c(N)nc([C@H](CC(N)=O)NC[C@H](N)C(N)=O)nc1C(=O)N[C@H](C(=O)N[C@H](C)[C@@H](O)[C@H](C)C(=O)N[C@H](C(=O)NCCc1nc(-c2nc(C(=O)NCCC[S+](C)C)cs2)cs1)[C@@H](C)O)[C@@H](OC1OC(CO)C(O)C(O)C1OC1OC(CO)C(O)C(OC(N)=O)C1O)c1cnc[nH]1 (stereo not given in full) [Bleomycin] + C=CC(=O)N1CCN(c2nc(=O)n(-c3c(C)ccnc3C(C)C)c3nc(-c4c(O)cccc4F)c(F)cc23)[C@@H](C)C1 [sotorasib],combination cScore with sotorasib,[1],19.9
same,combination cScore with sotorasib,[2],-4.36
same,combination cScore with sotorasib,[3],11.1
CC(C)C[C@H](NC(=O)[C@H](Cc1ccccc1)NC(=O)c1cnccn1)B(O)O [Bortezomib] + C=CC(=O)N1CCN(c2nc(=O)n(-c3c(C)ccnc3C(C)C)c3nc(-c4c(O)cccc4F)c(F)cc23)[C@@H](C)C1 [sotorasib],combination cScore with sotorasib,[1],5.05
same,combination cScore with sotorasib,[2],0.21
same,combination cScore with sotorasib,[3],-5.84
COc1cc(Nc2c(C#N)cnc3cc(OCCCN4CCN(C)CC4)c(OC)cc23)c(Cl)cc1Cl [Bosutinib] + C=CC(=O)N1CCN(c2nc(=O)n(-c3c(C)ccnc3C(C)C)c3nc(-c4c(O)cccc4F)c(F)cc23)[C@@H](C)C1 [sotorasib],combination cScore with sotorasib,[1],8.9
same,combination cScore with sotorasib,[2],5.71
same,combination cScore with sotorasib,[3],11.2
CC[C@H](Nc1ncnc2[nH]cnc12)c1nc2cccc(F)c2c(=O)n1-c1ccccc1 [Cal-101] + C=CC(=O)N1CCN(c2nc(=O)n(-c3c(C)ccnc3C(C)C)c3nc(-c4c(O)cccc4F)c(F)cc23)[C@@H](C)C1 [sotorasib],combination cScore with sotorasib,[1],29.1
same,combination cScore with sotorasib,[2],3.19
same,combination cScore with sotorasib,[3],7.76
O=P1(N(CCCl)CCCl)NCCCO1 (stereo not given) [Cyclophosphamide] + C=CC(=O)N1CCN(c2nc(=O)n(-c3c(C)ccnc3C(C)C)c3nc(-c4c(O)cccc4F)c(F)cc23)[C@@H](C)C1 [sotorasib],combination cScore with sotorasib,[1],-0.02
same,combination cScore with sotorasib,[2],4.33
same,combination cScore with sotorasib,[3],-10.5
Cc1nc(Nc2ncc(C(=O)Nc3c(C)cccc3Cl)s2)cc(N2CCN(CCO)CC2)n1 [Dasatinib] + C=CC(=O)N1CCN(c2nc(=O)n(-c3c(C)ccnc3C(C)C)c3nc(-c4c(O)cccc4F)c(F)cc23)[C@@H](C)C1 [sotorasib],combination cScore with sotorasib,[1],30.8
same,combination cScore with sotorasib,[2],9.3
same,combination cScore with sotorasib,[3],17.9
COc1cccc2c1C(=O)c1c(O)c3c(c(O)c1C2=O)C[C@@](O)(C(C)=O)C[C@@H]3O[C@H]1C[C@H](N)[C@H](O)[C@H](C)O1 [Daunorubicin] + C=CC(=O)N1CCN(c2nc(=O)n(-c3c(C)ccnc3C(C)C)c3nc(-c4c(O)cccc4F)c(F)cc23)[C@@H](C)C1 [sotorasib],combination cScore with sotorasib,[1],18.1
same,combination cScore with sotorasib,[2],2.01
same,combination cScore with sotorasib,[3],5.95
C[C@H](Nc1ncnc2nc[nH]c12)c1cc2cccc(Cl)c2c(=O)n1-c1ccccc1 [Duvelisib] + C=CC(=O)N1CCN(c2nc(=O)n(-c3c(C)ccnc3C(C)C)c3nc(-c4c(O)cccc4F)c(F)cc23)[C@@H](C)C1 [sotorasib],combination cScore with sotorasib,[1],14.2
same,combination cScore with sotorasib,[2],4.86
same,combination cScore with sotorasib,[3],18.6
C#Cc1cccc(Nc2ncnc3cc(OCCOC)c(OCCOC)cc23)c1 [Erlotinib] + C=CC(=O)N1CCN(c2nc(=O)n(-c3c(C)ccnc3C(C)C)c3nc(-c4c(O)cccc4F)c(F)cc23)[C@@H](C)C1 [sotorasib],combination cScore with sotorasib,[1],27.4
same,combination cScore with sotorasib,[2],10.2
same,combination cScore with sotorasib,[3],23
COc1cc(Nc2ncc(F)c(Nc3ccc4c(n3)N(COP(=O)(O)O)C(=O)C(C)(C)O4)n2)cc(OC)c1OC [Fostamatinib] + C=CC(=O)N1CCN(c2nc(=O)n(-c3c(C)ccnc3C(C)C)c3nc(-c4c(O)cccc4F)c(F)cc23)[C@@H](C)C1 [sotorasib],combination cScore with sotorasib,[1],23.3
same,combination cScore with sotorasib,[2],8.55
same,combination cScore with sotorasib,[3],23.7
C[C@H](Nc1ccc2c(c1)OCCn1cc(N3C(=O)OC[C@H]3C(F)F)nc1-2)C(N)=O [GDC-0077] + C=CC(=O)N1CCN(c2nc(=O)n(-c3c(C)ccnc3C(C)C)c3nc(-c4c(O)cccc4F)c(F)cc23)[C@@H](C)C1 [sotorasib],combination cScore with sotorasib,[1],25.4
same,combination cScore with sotorasib,[2],3.7
same,combination cScore with sotorasib,[3],18.3
